Calls of active or inactive are those of the source.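 Rule for the calls: active = compounds that block bursicon-driven reporter light with an IC50 below a set limit; inactive = IC50 above that limit.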
What follows are compounds tested against Bursicon receptor LGR2 (rickets), Drosophila melanogaster (assay: LGR2 bursicon receptor antagonists, dose response, cell-based, HEK293, CRE-luciferase, beta-gal normalized, dry powder (AID 743510)). Conditions: bursicon-stimulated, antagonist luminescence.

Compound	IC50
C[C@@H]1CCCCO[C@H](CN(C)C(=O)Nc2cccc3ccccc23)[C@H](C)CN([C@H](C)CO)C(=O)c2cc(NC(=O)C3CCCCC3)ccc2O1	> 35 µM (inactive)
Cc1ccc(NC(=O)N(C)C[C@@H]2OCCCC[C@H](C)Oc3ccc(NC(=O)C4CCCCC4)cc3C(=O)N([C@H](C)CO)C[C@@H]2C)cc1	< 35 µM
C[C@H](CO)N1C[C@H](C)[C@H](CN(C)C(=O)Nc2ccccc2F)OCCCC[C@H](C)Oc2ccc(NC(=O)C3CCCCC3)cc2C1=O	< 35 µM
C[C@H](CO)N1C[C@H](C)[C@H](CN(C)C(=O)Nc2cccc(F)c2)OCCCC[C@H](C)Oc2ccc(NC(=O)C3CCCCC3)cc2C1=O	< 35 µM
C[C@@H]1CN([C@@H](C)CO)C(=O)c2cc(NC(=O)C3CCCCC3)ccc2O[C@@H](C)CCCCO[C@H]1CN(C)C(=O)Nc1cccc2ccccc12	< 35 µM
C[C@H]1CCCCO[C@H](CN(C)C(=O)Nc2cccc3ccccc23)[C@@H](C)CN([C@@H](C)CO)C(=O)c2cc(NC(=O)C3CCCCC3)ccc2O1	> 35 µM (inactive)
C[C@H](CO)N1C[C@H](C)[C@H](CN(C)C(=O)Nc2cccc3ccccc23)OCCCC[C@H](C)Oc2ccc(NC(=O)C3CCCCC3)cc2C1=O	< 35 µM
C[C@H](CO)N1C[C@H](C)[C@@H](CN(C)C(=O)Nc2cccc3ccccc23)OCCCC[C@H](C)Oc2ccc(NC(=O)C3CCCCC3)cc2C1=O	> 35 µM (inactive)
C[C@@H]1CCCCO[C@H](CN(C)C(=O)Nc2cccc3ccccc23)[C@@H](C)CN([C@@H](C)CO)C(=O)c2cc(NC(=O)C3CCCCC3)ccc2O1	> 35 µM (inactive)
C[C@H](CO)N1C[C@H](C)[C@H](CN(C)C(=O)Nc2ccc(F)cc2)OCCCC[C@H](C)Oc2ccc(NC(=O)C3CCCC3)cc2C1=O	< 35 µM
CC(=O)Nc1ccc2c(c1)C(=O)N([C@H](C)CO)C[C@H](C)[C@H](CN(C)C(=O)Nc1ccc(F)cc1)OCCCC[C@H](C)O2	> 35 µM (inactive)
C[C@H](CO)N1C[C@H](C)[C@H](CN(C)C(=O)Nc2ccc(Cl)cc2)OCCCC[C@H](C)Oc2ccc(NC(=O)C3CCCCC3)cc2C1=O	< 35 µM
C[C@H](CO)N1C[C@H](C)[C@H](CN(C)C(=O)Nc2ccc(F)cc2)OCCCC[C@H](C)Oc2ccc(NC(=O)C3CC3)cc2C1=O	> 35 µM (inactive)
C[C@H](CO)N1C[C@H](C)[C@H](CN(C)C(=O)Nc2ccc3ccccc3c2)OCCCC[C@H](C)Oc2ccc(NC(=O)C3CCCCC3)cc2C1=O	< 35 µM
C[C@H](CO)N1C[C@H](C)[C@H](CN(C)C(=O)Nc2ccc(F)cc2)OCCCC[C@H](C)Oc2ccc(NC(=O)C3CCOCC3)cc2C1=O	> 35 µM (inactive)
C[C@H](CO)N1C[C@H](C)[C@H](CN(C)C(=O)Nc2ccc(F)cc2)OCCCC[C@H](C)Oc2ccc(NC(=O)C3CCCCCC3)cc2C1=O	< 35 µM

The remaining lines, values ahead:

IC50	Compound
> 35 µM (inactive)	C[C@@H]1CCCCO[C@H](CN(C)C(=O)Nc2cccc3ccccc23)[C@@H](C)CN([C@H](C)CO)C(=O)c2cc(NC(=O)C3CCCCC3)ccc2O1
> 35 µM (inactive)	C[C@@H]1CN([C@@H](C)CO)C(=O)c2cc(NC(=O)C3CCCCC3)ccc2O[C@@H](C)CCCCO[C@@H]1CN(C)C(=O)Nc1cccc2ccccc12
> 35 µM (inactive)	C[C@@H]1CCCCO[C@H](CN(C)C(=O)Nc2cccc3ccccc23)[C@H](C)CN([C@@H](C)CO)C(=O)c2cc(NC(=O)C3CCCCC3)ccc2O1
> 35 µM (inactive)	C[C@@H]1CCCCO[C@@H](CN(C)C(=O)Nc2cccc3ccccc23)[C@@H](C)CN([C@@H](C)CO)C(=O)c2cc(NC(=O)C3CCCCC3)ccc2O1
> 35 µM (inactive)	C[C@@H]1CCCCO[C@@H](CN(C)C(=O)Nc2cccc3ccccc23)[C@H](C)CN([C@H](C)CO)C(=O)c2cc(NC(=O)C3CCCCC3)ccc2O1
> 35 µM (inactive)	C[C@@H]1CCCCO[C@@H](CN(C)C(=O)Nc2cccc3ccccc23)[C@@H](C)CN([C@H](C)CO)C(=O)c2cc(NC(=O)C3CCCCC3)ccc2O1
> 35 µM (inactive)	C[C@@H]1CN([C@H](C)CO)C(=O)c2cc(NC(=O)C3CCCCC3)ccc2O[C@@H](C)CCCCO[C@@H]1CN(C)C(=O)Nc1cccc2ccccc12
< 35 µM	C[C@H]1CCCCO[C@@H](CN(C)C(=O)Nc2cccc3ccccc23)[C@@H](C)CN([C@@H](C)CO)C(=O)c2cc(NC(=O)C3CCCCC3)ccc2O1
> 35 µM (inactive)	C[C@@H]1CN([C@H](C)CO)C(=O)c2cc(NC(=O)C3CCCCC3)ccc2O[C@@H](C)CCCCO[C@H]1CN(C)C(=O)Nc1cccc2ccccc12
> 35 µM (inactive)	C[C@@H]1CCCCO[C@@H](CN(C)C(=O)Nc2cccc3ccccc23)[C@H](C)CN([C@@H](C)CO)C(=O)c2cc(NC(=O)C3CCCCC3)ccc2O1
